Reference: EPA's ToxValDB 9.5
“And” between values parts separate entries of the source, which are not always exact repeats. Equal values may be shown once. Blank lines part the entries; values can stand above or below the compound they belong to.

How the values were obtained:
Mus musculus [1] = details: uterotrophic, Active
Oryctolagus sp. = details: for LD50: acute, dermal; for NOAEL: duration: 24 days, oral, gavage
Mus musculus [2] = details: oral; for LD50: acute
Rattus norvegicus [3] = details: for LD50 / LC50: acute
Rattus norvegicus [4] = details: oral
Rattus norvegicus [5] = details: for LEL: uterotrophic, Active
Rattus norvegicus [6] = details: oral, M/F
Rattus norvegicus [7] = tested on: Rattus norvegicus
[8] = duration: 3 days, injection, subcutaneous
[9] = Hershberger, duration: 10 days, oral, gavage, Sprague-Dawley, active + Androgenic + Negative + androgenic
[10] = reproduction developmental, mortality and kidney lesions
[11] = subchronic, duration: 12 weeks, Inhalation, Long-Evans
[12] = subchronic, drinking water, impaired renal function and increased liver and kidney weight

SMILES: CC(C)(c1cc(Cl)c(O)c(Cl)c1)c1cc(Cl)c(O)c(Cl)c1 [2,2',6,6'-Tetrachlorobisphenol A]
LEL (Mus musculus [1]; duration: 3 days, injection, intraperitoneal): 20 mg/kg-day

LEL (Mus musculus [1]; [8]): 100 mg/kg-day
SMILES: Oc1ccc(C(c2ccc(O)cc2)C(Cl)(Cl)Cl)cc1 [2,2-Bis(4-hydroxyphenyl)-1,1,1-trichloroethane]

SMILES: Cc1cccc([N+](=O)[O-])c1 [3-Nitrotoluene]
LD50 (Oryctolagus sp.; New Zealand): > 20000 mg/kg | LD50 (Mus musculus [2]): 1230 mg/kg | LOAEL (Mus musculus [2]; subchronic, duration: 13 weeks, diet, B6C3F1): ≥ 123 mg/kg-day and ≤ 133 mg/kg-day | LD50 (Rattus norvegicus [3]; dermal): > 1160 mg/kg | LC50 (Rattus norvegicus [3]; inhalation): > 2.42 µg/mL | LC50 (Rattus norvegicus [3]; inhalation, Sprague-Dawley): > 881 mg/m3 | LD50 (Rattus norvegicus [3]; oral): 2120 mg/kg and 1070 mg/kg and 1780 mg/kg | LD50 (Rattus norvegicus [3]; oral, Sprague-Dawley): 1070 mg/kg | LD50 (Rattus norvegicus [3]; oral, gavage, Wistar): 2200 mg/kg and 2000 mg/kg | LOAEL (Rattus norvegicus [3]; subchronic, duration: 13 weeks, oral, diet, F, Fischer 344): 60 mg/kg-day | LOAEL (Rattus norvegicus [3]; subchronic, duration: 13 weeks, oral, diet, M, Fischer 344): 60 mg/kg-day | NOEL (Rattus norvegicus [4]; subchronic, diet, F, Fischer 344, Body Weight Changes: decrease + Food Consumption: decrease + Hematology: Hct decrease, Hgb decrease, RBC decrease, MCV increase, MCH …): < 48 mg/kg-day | NOEL (Rattus norvegicus [4]; subchronic, diet, M/F, Fischer 344, Body Weight Changes: decrease + Food Consumption: decrease + Hematology: Hct decrease, Hgb decrease, RBC decrease, MCV increase, MCH …): < 60 mg/kg-day

LEL (Mus musculus [1]; [8]): 5 mg/kg-day
SMILES: O=C(O)c1ccc(O)cc1 [4-Hydroxybenzoic acid]

SMILES: CC(C)CCCCCCc1ccc(O)cc1 [4-Nonylphenol, branched]
LD50 (Rattus norvegicus [3]; oral): 1880 mg/kg | NOAEL (Rattus norvegicus [3]; reproduction developmental, oral, diet, Sprague-Dawley): 15 mg/kg-day | NOAEL (Rattus norvegicus [3]; short-term, duration: 28 days, oral, diet, Crl:CD(SD) BR): 100 mg/kg-day | NOAEL (Rattus norvegicus [3]; subchronic, duration: 90 days, oral, diet, Sprague-Dawley): 50 mg/kg-day | NOEL (Rattus norvegicus [4]; short-term, duration: 28 days, gavage, M/F, Crj:CD, Deaths + Clinical Observation: Salivation, Urinary incontinence Abnormal estrus cycle + Hematology: Ret increase, RBC decrease, Plt increase…): 10 mg/kg-day | LEL (Mus musculus [1]; [8]): 1000 mg/kg-day | LEL (Rattus norvegicus [5]; duration: 3 days, oral): 190 mg/kg-day

LEL (Mus musculus [1]; duration: 0 days, oral, diet): 0.0001 ppm | LEL (fractional dose of pill) (Mus musculus [1]; duration: 3 days, oral): 0.001 | LEL (Mus musculus [1]; duration: 4 days, injection, subcutaneous): 0.002 mg/kg-day | LEL (Rattus norvegicus [5]; duration: 1 days, dermal): 0.125 mg/L | LEL (Rattus norvegicus [5]; duration: 3 days, oral, diet): 0.001 mg/kg-day | LEL (Rattus norvegicus [5]; duration: 4 days, oral): 0.03 mg/kg-day | LEL (Rattus norvegicus [5]; duration: 4 days, oral, diet): 0.000342 mg/kg-day | LEL (Rattus norvegicus [5]; duration: 21 days, oral): 0.01 mg/kg-day | LEL (Rattus norvegicus [5]; duration: 28 days, oral): 0.2 mg/kg-day
SMILES: C#C[C@]1(O)CC[C@H]2[C@@H]3CCc4cc(O)ccc4[C@H]3CC[C@@]21C [17alpha-Ethinylestradiol]
NOEL (Rattus norvegicus [4]; short-term, duration: 28 days, gavage, M/F, Crj:CD, Body Weight Changes: decrease + Food Consumption: decrease + Blood Chemistry: A/G decrease >0 Cho decrease 0 Alp increase, gamma-GTP …): < 0.01 mg/kg-day | LOEL (Rattus norvegicus [5]; [9]): 50 mg/kg-day | NOEL (Rattus norvegicus [5]; [9]): 10 mg/kg-day

SMILES: O=C([O-])c1cc(Oc2ccc(C(F)(F)F)cc2Cl)ccc1[N+](=O)[O-].[Na+] [Acifluorfen sodium]
LD50 (Oryctolagus sp.; occlusive, Albino): 1460 mg/kg | NOAEL (Oryctolagus sp.; developmental, New Zealand): 12 mg/kg-day | NOAEL (Oryctolagus sp.; reproduction developmental, F, New Zealand): 12 mg/kg-day | LC50 (Rattus norvegicus [3]; Inhalation, albino King (Kng:(SD)BR)): > 1.38 µg/mL | LD50 (Rattus norvegicus [3]; oral, CF Nelson): 122 mg/kg | NOAEL (Rattus norvegicus [3]; developmental, duration: 14 days, oral, gavage, Crl:COBS-CD-(SD)BR): 20 mg/kg-day | LEL (Rattus norvegicus [6]; [10]): 25 mg/kg-day | NOEL (Rattus norvegicus [6]; [10]): 1.25 mg/kg-day

SMILES: C=CCO [Allyl alcohol]
LD50 (Oryctolagus sp.): 89 mg/kg | LD50 (Mus musculus [2]; gavage, Swiss-Webster): 96 mg/kg | LC50 (Rattus norvegicus [3]; inhalation, Long-Evans): ≥ 297 mg/m3 and ≤ 333 mg/m3 | LC50 (Rattus norvegicus [3]; inhalation, Sherman Wistar): 594 mg/m3 | LD50 (Rattus norvegicus [3]; oral, Sherman Wistar): 64 mg/kg | LD50 (Rattus norvegicus [3]; oral, gavage, Long-Evans): ≥ 99 mg/kg and ≤ 105 mg/kg | LD50 (Rattus norvegicus [3]; oral, gavage, Osborne-Mendel): 70 mg/kg | NOAEL (Rattus norvegicus [3]; chronic, duration: 15 weeks, oral, drinking water, Wistar): 11.2 mg/kg-day | LOAEL (Rattus norvegicus [3]; [11]): 95 mg/m3 | NOAEL (Rattus norvegicus [3]; [11]): 47.5 mg/m3 | NOEL (Rattus norvegicus [4]; subchronic, gavage, F, Fischer 344, Hematology: Plt increase + Blood Chemistry: BUN increase25 Bile acid increase + Absolute Organ Weight: Liver increase + Relative Organ …): 1.5 mg/kg-day | NOEL (Rattus norvegicus [4]; subchronic, gavage, M, Fischer 344, Hematology: Plt increase + Blood Chemistry: BUN increase25 Bile acid increase + Absolute Organ Weight: Liver increase + Relative Organ …): 3 mg/kg-day | LOAEL (Rattus norvegicus [6]; [12]): 6.9 mg/kg-day | NOEL (Rattus norvegicus [6]; [12]): 4.8 mg/kg-day

LEL (Mus musculus [1]; duration: 3 days, dermal): 100 mg/day | LEL (Rattus norvegicus [5]; duration: 3 days, oral): 0.16 mg/kg-day
SMILES: O=C(OCc1ccccc1)c1ccc(O)cc1 [Benzyl 4-hydroxybenzoate]

LEL (Mus musculus [1]; duration: 4 days, oral, diet): 2.5 mg/day
SMILES: COc1ccc(-c2coc3cc(O)cc(O)c3c2=O)cc1 [Biochanin A]

SMILES: COP(=S)(OC)Oc1cc(Cl)c(Br)cc1Cl [Bromofos]
NOAEL (Rattus norvegicus [7]; reproduction developmental, oral, diet, Blood: Decreased cholinesterase activity + Liver: Decreased cholinesterase activity): 5 mg/kg-day

SMILES: ClC1=C(Cl)[C@]2(Cl)C3C(Cl)C(Cl)CC3[C@@]1(Cl)C2(Cl)Cl (stereo partly specified) [Chlordane]
NOEL (Rattus norvegicus [7]; chronic, duration: 130 weeks, oral, diet, Liver: Hypertrophy): 0.055 mg/kg-day

SMILES: C=CC(=C)Cl [Chloroprene]
NOAEL (Rattus norvegicus [7]; chronic, duration: 2 years, inhalation, intermittent, Hair: Alopecia + Whole body: Decreased weight gain): 36.2 mg/m3 | NOAEL (Rattus norvegicus [7]; subchronic, duration: 90 days, inhalation, Olfactory epithelium: Degeneration): 116 mg/m3

SMILES: COP(=S)(OC)Oc1nc(Cl)c(Cl)cc1Cl [Chlorpyrifos-methyl]
NOAEL (Rattus norvegicus [7]; reproduction developmental, duration: 3 years, oral, diet, Liver: Effects + Reproduction: Decreased fertility): 1 mg/kg-day | LOEL (Rattus norvegicus [5]; Hershberger, duration: 10 days, oral, gavage, Sprague-Dawley, active + Negative + Antiandrogenic + anti-androgenic): 50 mg/kg-day
